Measurements taken from ChEMBL document CHEMBL4665799, “Synthesis and biological evaluation of diaryl urea derivatives as FLT3 inhibitors” (Bioorg Med Chem Lett, 2020).

Key:
[1] = tested on: Receptor-type tyrosine-protein kinase FLT3 (Homo sapiens), P36888 [UNDEFINED MUTATION]; details: dose 500.0 nM
Description: Inhibition of FLT3 ITD mutant (unknown origin) at 500 nM relative to control

[2] = tested on: MV4-11; assay: cells; details: Homo sapiens
Description: Antiproliferative activity against human MV4-11 cells assessed as reduction in cell viability

[3] = molecular target: Receptor-type tyrosine-protein kinase FLT3 (Homo sapiens, UniProt P36888, ITD)
Description: Inhibition of FLT3 ITD mutant (unknown origin)

[4] = tested on: MV4-11; assay: Potency index, ratio of quizartinib IC50 to test compound IC50 for antiproliferative activity against human MV4-11 cells assessed as reduction in cell viability; format: functional

Receptor-type tyrosine-protein kinase FLT3, sequence (P36888 whole entry, looked up, stated change not applied): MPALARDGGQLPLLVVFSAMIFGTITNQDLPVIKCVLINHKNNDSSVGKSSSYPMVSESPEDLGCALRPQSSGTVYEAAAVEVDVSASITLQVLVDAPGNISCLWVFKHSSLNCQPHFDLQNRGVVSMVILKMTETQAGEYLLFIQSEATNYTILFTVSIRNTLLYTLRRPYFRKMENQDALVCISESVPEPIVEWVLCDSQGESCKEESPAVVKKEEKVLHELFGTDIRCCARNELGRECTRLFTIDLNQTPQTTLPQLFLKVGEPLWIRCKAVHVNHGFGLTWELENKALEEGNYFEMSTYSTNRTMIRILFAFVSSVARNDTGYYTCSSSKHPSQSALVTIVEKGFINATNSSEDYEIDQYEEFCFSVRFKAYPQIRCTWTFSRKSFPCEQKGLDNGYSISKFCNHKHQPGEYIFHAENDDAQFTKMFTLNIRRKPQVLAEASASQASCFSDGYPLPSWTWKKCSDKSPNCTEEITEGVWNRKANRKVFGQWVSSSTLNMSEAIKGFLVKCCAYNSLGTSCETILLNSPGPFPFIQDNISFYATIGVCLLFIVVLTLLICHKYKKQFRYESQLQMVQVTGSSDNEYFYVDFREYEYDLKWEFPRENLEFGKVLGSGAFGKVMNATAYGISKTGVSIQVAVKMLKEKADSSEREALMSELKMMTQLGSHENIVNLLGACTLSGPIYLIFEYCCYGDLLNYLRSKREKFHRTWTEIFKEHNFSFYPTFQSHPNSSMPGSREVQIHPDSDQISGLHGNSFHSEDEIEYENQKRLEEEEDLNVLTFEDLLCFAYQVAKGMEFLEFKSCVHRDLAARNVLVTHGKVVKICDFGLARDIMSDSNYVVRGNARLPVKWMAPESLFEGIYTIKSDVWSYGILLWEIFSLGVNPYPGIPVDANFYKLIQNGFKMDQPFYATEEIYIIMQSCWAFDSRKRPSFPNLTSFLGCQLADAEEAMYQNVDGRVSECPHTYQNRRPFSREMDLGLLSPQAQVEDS
Receptor-type tyrosine-protein kinase FLT3 (Homo sapiens), P36888 [UNDEFINED MUTATION], sequence (P36888 whole entry, looked up, change not shown): as the sequence (P36888 whole entry, looked up, stated change not applied) above

| SMILES | inhibition [1] [%] | IC50 [2] [nM] | IC50 [3] [nM] | Ratio IC50 [4] |
| --- | --- | --- | --- | --- |
| COc1ccc2c(c1)sc1nc(-c3ccc(NC(=O)Nc4cc(C)on4)cc3)cn12 | 67.3 | – | – | – |
| Cc1cc(NC(=O)Nc2ccc3c(c2)sc2nc(-c4ccc(OCCN5CCOCC5)cc4)cn23)no1 | 82.5 | 39.9 | 82.6 | – |
| Cc1cc(NC(=O)Nc2ccc(-c3cn4c(n3)sc3cc(OCCN5CCOCC5)ccc34)cc2)no1 | 79.9 | – | – | – |
| CC(C)(C)c1cc(NC(=O)Nc2ccc(CC(=O)Nc3ccc(-c4cn5c(n4)sc4cc(OCCN6CCOCC6)ccc45)cc3)cc2)on1 | 38.5 | – | – | – |
| CC(C)(C)c1cc(NC(=O)Nc2ccc(C(=O)Nc3ccc(-c4cn5c(n4)sc4cc(OCCN6CCOCC6)ccc45)cc3)cc2)no1 | 35 | – | – | – |
| Cc1cc(NC(=O)Nc2ccc(-c3cn4c(n3)sc3cc(OCCN5CCOCC5)ccc34)cc2)on1 | 66.7 | 33.1 | 157 | – |
| COc1ccc2nc(NC(=O)Cc3ccc(NC(=O)Nc4cc(C(C)(C)C)on4)cc3)sc2c1 | 2.5 | – | – | – |
| COc1ccc2c(c1)sc1nc(-c3ccc(NC(=O)Nc4cc(C(C)(C)C)no4)cc3)cn12 | 97.2 | 1.97 | 20.5 | – |
| COc1ccc2nc(NC(=O)Cc3ccc(NC(=O)Nc4cc(C(C)(C)C)no4)cc3)sc2c1 | 6.4 | – | – | – |
| Cc1cc(NC(=O)Nc2ccc(CC(=O)Nc3ccc(-c4cn5c(n4)sc4cc(OCCN6CCOCC6)ccc45)cc3)cc2)on1 | 45.9 | – | – | – |
| COc1ccc2c(c1)sc1nc(-c3ccc(NC(=O)Nc4cc(C)no4)cc3)cn12 | 52.6 | – | – | – |
| CC(C)(C)c1cc(NC(=O)Nc2ccc3c(c2)sc2nc(-c4ccc(OCCN5CCOCC5)cc4)cn23)on1 | 99.3 | 0.614 | 6.83 | – |
| Cc1cc(NC(=O)Nc2ccc3c(c2)sc2nc(-c4ccc(OCCN5CCOCC5)cc4)cn23)on1 | 76.9 | 88.7 | 109 | – |
| COc1ccc2nc(NC(=O)Cc3ccc(NC(=O)Nc4cc(C)on4)cc3)sc2c1 | -2 | – | – | – |
| COc1ccc2nc(NC(=O)Cc3ccc(NC(=O)Nc4cc(C)no4)cc3)sc2c1 | 4.5 | – | – | – |
| Cc1cc(NC(=O)Nc2ccc(C(=O)Nc3ccc(-c4cn5c(n4)sc4cc(OCCN6CCOCC6)ccc45)cc3)cc2)on1 | 28.1 | – | – | – |
| CC(C)(C)c1cc(NC(=O)Nc2ccc(C(=O)Nc3ccc(-c4cn5c(n4)sc4cc(OCCN6CCOCC6)ccc45)cc3)cc2)on1 | 41.9 | – | – | – |
| Cc1cc(NC(=O)Nc2ccc(CC(=O)Nc3ccc(-c4cn5c(n4)sc4cc(OCCN6CCOCC6)ccc45)cc3)cc2)no1 | 35.8 | – | – | – |
| CC(C)(C)c1cc(NC(=O)Nc2ccc(-c3cn4c(n3)sc3cc(OCCN5CCOCC5)ccc34)cc2)on1 | 99.6 | 0.176 | 5.6 | 4.75 |
| CC(C)(C)c1cc(NC(=O)Nc2ccc(CC(=O)Nc3ccc(-c4cn5c(n4)sc4cc(OCCN6CCOCC6)ccc45)cc3)cc2)no1 | 36 | – | – | – |
| Cc1cc(NC(=O)Nc2ccc(C(=O)Nc3ccc(-c4cn5c(n4)sc4cc(OCCN6CCOCC6)ccc45)cc3)cc2)no1 | 29 | – | – | – |
| CC(C)(C)c1cc(NC(=O)Nc2ccc3c(c2)sc2nc(-c4ccc(OCCN5CCOCC5)cc4)cn23)no1 | 98.8 | 0.782 | 8.25 | – |
